# In patent US6737383B1, “Herbicidal oxadiazolidines” (priority 1999, dated 2004):
# How the values were obtained:
# bedstraw = assay: Test B pre/postemergence bedstraw; format: in vivo, Galium aparine
# Outline: (§1)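 Response is a visual 0-to-10 score relative to untreated plants, where 0 means no effect and 10 means complete control, taken twelve to sixteen days after application. Treatments went onto soil at planting and onto foliage of 1- to 4-leaf plants, using a surfactant-containing non-phytotoxic solvent.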
# cocklebur = assay: Test B pre/postemergence cocklebur; format: in vivo, Xanthium strumarium
# Outline: as §1
# corn = assay: Test B pre/postemergence corn; format: in vivo, Zea mays
# Outline: as §1
# crabgrass = assay: Test B pre/postemergence crabgrass; format: in vivo, Digitaria sanguinalis
# Outline: as §1
# giant foxtail = assay: Test B pre/postemergence giant foxtail; format: in vivo, Setaria faberii
# Outline: as §1
# morningglory = assay: Test B pre/postemergence morningglory; format: in vivo, Ipomoea hederacea
# Outline: as §1
# pigweed = assay: Test B pre/postemergence pigweed; format: in vivo, Amaranthus retroflexus
# Outline: as §1
# rape = assay: Test B pre/postemergence rape; format: in vivo, Brassica napus
# Outline: as §1
# soybean = assay: Test B pre/postemergence soybean; format: in vivo, Glycine max
# Outline: as §1
# velvetleaf = assay: Test B pre/postemergence velvetleaf; format: in vivo, Abutilon theophrasti
# Outline: as §1
# wheat = assay: Test B pre/postemergence wheat; format: in vivo, Triticum aestivum
# Outline: as §1
# wild oat = assay: Test B pre/postemergence wild oat; format: in vivo, Avena fatua
# Outline: as §1
# purple nutsedge = assay: Test B pre/postemergence purple nutsedge; format: in vivo, Cyperus rotundus
# Outline: as §1
# rice = assay: Test B flood test rice; format: in vivo, Oryza sativa
# Outline: (§2)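 Flood test on plants grown to the 2-leaf stage; treated plants kept in greenhouse twelve to sixteen days, then visually rated against controls on a 0 (no effect) to 10 (complete control) scale.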
# smallflower flatsedge = assay: Test B flood test smallflower flatsedge; format: in vivo, Cyperus difformis
# Outline: as §2
# duck salad = assay: Test B flood test duck salad; format: in vivo, Heteranthera limosa
# Outline: as §2
# [1] = Preemergence, Rate 62 g/ha, scale of 0 to 10 where 0 is no effect and 10 is complete control
# [2] = Preemergence, Rate 250 g/ha, scale of 0 to 10 where 0 is no effect and 10 is complete control
# [3] = Preemergence, Rate 500 g/ha, scale of 0 to 10 where 0 is no effect and 10 is complete control
# [4] = Rate 62 g/ha, Postemergence, scale 0 to 10 (0 no effect, 10 complete control)
# [5] = Rate 125 g/ha, Postemergence, scale of 0 to 10 where 0 is no effect and 10 is complete control
# [6] = Rate 250 g/ha, Postemergence, scale of 0 to 10 where 0 is no effect and 10 is complete control
# [7] = Rate 500 g/ha, Postemergence, scale 0 to 10, 0 no effect, 10 complete control
# [8] = Rate 62 g/ha, headed Pre-emergence (flood test species), scale 0 to 10 (0 no effect, 10 complete control)
# [9] = Rate 125 g/ha, Pre-emergence, flood test species, scale 0 to 10 where 0 is no effect and 10 is complete control
# [10] = Rate 250 g/ha, Pre-emergence, flood-test species, scale 0 to 10, 0 is no effect, 10 is complete control
# [11] = Rate 500 g/ha, Pre-emergence, flood test species, scale 0 to 10 (0 no effect, 10 complete control)
compound,measurement,setting,value
CC(C)N(C(=O)n1oc(=O)n(Cc2ccccc2-c2ccccc2)c1=O)c1ccc(F)cc1 [Compound 313],Bedstraw plant response rating,bedstraw; [1],0
same,Bedstraw plant response rating,bedstraw; [2],0
same,Bedstraw plant response rating,bedstraw; [3],0
same,Bedstraw plant response rating,bedstraw; [4],5
same,Bedstraw plant response rating,bedstraw; [5],7
same,"Plant response rating, Bedstraw",bedstraw; [6],7
same,Cocklebur plant response rating,cocklebur; [1],0
same,Cocklebur plant response rating (0 to 10 scale),"cocklebur; Preemergence, Rate 125 g/ha",0
same,Cocklebur plant response rating,cocklebur; [2],0
same,Cocklebur plant response rating,cocklebur; [3],0
same,Cocklebur plant response rating,cocklebur; [4],0
same,Cocklebur plant response rating,cocklebur; [5],0
same,"Plant response rating, Cocklebur",cocklebur; [6],0
same,Cocklebur plant response rating,cocklebur; [7],0
same,Corn plant response rating,corn; [1],0
same,Corn plant response rating (0 to 10 scale),"corn; Preemergence, Rate 125 g/ha",0
same,Corn plant response rating,corn; [2],0
same,Corn plant response rating,corn; [3],0
same,Corn plant response rating,corn; [4],0
same,Corn plant response rating,corn; [5],0
same,"Plant response rating, Corn",corn; [6],0
same,Corn plant response rating,corn; [7],0
same,Crabgrass plant response rating,crabgrass; [1],0
same,Crabgrass plant response rating (0 to 10 scale),"crabgrass; Preemergence, Rate 125 g/ha",0
same,Crabgrass plant response rating,crabgrass; [2],0
same,Crabgrass plant response rating,crabgrass; [3],0
same,Crabgrass plant response rating,crabgrass; [4],0
same,Crabgrass plant response rating,crabgrass; [5],0
same,"Plant response rating, Crabgrass",crabgrass; [6],0
same,Giant foxtail plant response rating,giant foxtail; [1],0
same,Giant foxtail plant response rating (0 to 10 scale),"giant foxtail; Preemergence, Rate 125 g/ha",0
same,Giant foxtail plant response rating,giant foxtail; [2],0
same,Giant foxtail plant response rating,giant foxtail; [3],0
same,Giant foxtail plant response rating,giant foxtail; [4],0
same,Giant foxtail plant response rating,giant foxtail; [5],0
same,"Plant response rating, Giant foxtail",giant foxtail; [6],0
same,Morningglory plant response rating,morningglory; [1],0
same,Morningglory plant response rating (0 to 10 scale),"morningglory; Preemergence, Rate 125 g/ha",0
same,Morningglory plant response rating,morningglory; [2],0
same,Morningglory plant response rating,morningglory; [3],0
same,Morningglory plant response rating,morningglory; [4],2
same,Morningglory plant response rating,morningglory; [5],3
same,"Plant response rating, Morningglory",morningglory; [6],3
same,Redroot pigweed plant response rating,pigweed; [1],0
same,Redroot pigweed plant response rating (0 to 10 scale),"pigweed; Preemergence, Rate 125 g/ha",0
same,Redroot pigweed plant response rating,pigweed; [2],0
same,Redroot pigweed plant response rating,pigweed; [3],0
same,Redroot pigweed plant response rating,pigweed; [4],0
same,Redroot pigweed plant response rating,pigweed; [5],0
same,"Plant response rating, Redroot pigweed",pigweed; [6],2
same,Rape plant response rating,rape; [1],0
same,Rape plant response rating (0 to 10 scale),"rape; Preemergence, Rate 125 g/ha",0
same,Rape plant response rating,rape; [2],0
same,Rape plant response rating,rape; [3],0
same,Rape plant response rating,rape; [4],0
same,Rape plant response rating,rape; [5],0
same,"Plant response rating, Rape",rape; [6],0
same,Soybean plant response rating,soybean; [1],0
same,Soybean plant response rating (0 to 10 scale),"soybean; Preemergence, Rate 125 g/ha",0
same,Soybean plant response rating,soybean; [2],0
same,Soybean plant response rating,soybean; [3],0
same,Soybean plant response rating,soybean; [4],1
same,Soybean plant response rating,soybean; [5],2
same,"Plant response rating, Soybean",soybean; [6],3
same,Velvetleaf plant response rating,velvetleaf; [1],0
same,Velvetleaf plant response rating (0 to 10 scale),"velvetleaf; Preemergence, Rate 125 g/ha",0
same,Velvetleaf plant response rating,velvetleaf; [2],0
same,Velvetleaf plant response rating,velvetleaf; [3],0
same,Velvetleaf plant response rating,velvetleaf; [4],0
same,Velvetleaf plant response rating,velvetleaf; [5],0
same,"Plant response rating, Velvetleaf",velvetleaf; [6],0
same,Wheat plant response rating,wheat; [1],0
same,Wheat plant response rating (0 to 10 scale),"wheat; Preemergence, Rate 125 g/ha",0
same,Wheat plant response rating,wheat; [2],0
same,Wheat plant response rating,wheat; [3],0
same,Wheat plant response rating,wheat; [4],0
same,Wheat plant response rating,wheat; [5],0
same,"Plant response rating, Wheat",wheat; [6],0
same,Wild oats plant response rating,wild oat; [1],0
same,Wild oats plant response rating (0 to 10 scale),"wild oat; Preemergence, Rate 125 g/ha",0
same,Wild oats plant response rating,wild oat; [2],0
same,Wild oats plant response rating,wild oat; [3],0
same,Wild oats plant response rating,wild oat; [4],0
same,Wild oats plant response rating,wild oat; [5],0
same,"Plant response rating, Wild oats",wild oat; [6],0
same,Nutsedge plant response rating,purple nutsedge; [1],0
same,Nutsedge plant response rating (0 to 10 scale),"purple nutsedge; Preemergence, Rate 125 g/ha",0
same,Nutsedge plant response rating,purple nutsedge; [2],0
same,Nutsedge plant response rating,purple nutsedge; [3],0
same,Nutsedge plant response rating,purple nutsedge; [4],0
same,Nutsedge plant response rating,purple nutsedge; [5],0
same,"Plant response rating, Nutsedge",purple nutsedge; [6],0
same,Rice plant response rating,rice; [8],0
same,Rice plant response rating,rice; [9],0
same,Rice plant response rating,rice; [10],0
same,Rice plant response rating,rice; [11],0
same,S. Flatsedge plant response rating,smallflower flatsedge; [8],0
same,S. Flatsedge plant response rating,smallflower flatsedge; [9],0
same,S. Flatsedge plant response rating,smallflower flatsedge; [10],0
same,S. Flatsedge plant response rating,smallflower flatsedge; [11],0
same,Ducksalad plant response rating,duck salad; [8],0
same,Ducksalad plant response rating,duck salad; [9],0
same,Ducksalad plant response rating,duck salad; [10],0
same,Ducksalad plant response rating,duck salad; [11],0
